# Source: patent US20090305994A1, “Compounds Modulating Vegf Receptor and Uses Thereof” (priority 2005, published 2009)
# Key:
# Human endothelial cells = assay: Angiogenesis in vitro assay (Angiokit, tubule formation, CD31 staining); assay type: cell-based; conditions: eleventh day
# Protocol: In vitro angiogenic properties of QK. Human endothelial cells were co-cultured with other human cells in a specially designed medium in a 24 well plate. Every three days, QK alone or a combination of QK and VEGF165 (100 ng/ml) was added to the cultures. On the eleventh day, cells were fixed with ice cold 70% ethanol and tubule formation was visualized by staining for anti-human CD31 (PECAM-1).
# Angiogenesis in vitro assay. Human endothelial cells were co-cultured with other human cells in a specially designed medium (Angiokit, TCS CellWorks), in a 24 well plates. Every three days, QK in absence or in presence of VEGF165 was added to the cultures. VEGF and suramine (20 μM) were used as positive and negative controls respectively. […] On the eleventh day, cells were fixed with ice cold 70% ethanol and tubule formation was visualized by staining for anti-human CD31 (PECAM-1). Results were scored with the image analysis software, Angiosys software (TCS CellWorks).
# In vitro angiogenesis assay. […] Tubule formation was evaluated by positive staining for CD31/PECAM-1, an intercellular adhesion molecule involved in leucocytes diapedesis. We determined the number of cell junctions corrected by the total tubules length.
# HUVEC = assay: Analysis of caspase 3 activity in HUVEC deprived of FBS; assay type: cell-based, human; conditions: 4 h
# Protocol: HUVE cells (1×10^4/cm2) were incubated in medium without FBS, in the absence or presence of VEGF (20 ng/ml) and QK (5 ng/ml), at 37° C. in a 5% CO2 atmosphere. After 4 h, caspase 3 activity was determined. Results are expressed as mean values of triplicates.
# HUVE cells (1×10^4/cm2) were incubated in medium without FBS, in the absence or presence of VEGF (20 ng/ml) and the indicated peptides (20 ng/ml), at 37° C. in a 5% CO2 atmosphere. After 4 h, caspase 3 activity was determined. Results are expressed as mean values of triplicates.
# (§1) Analysis of caspase 3 activity—Cells (2×104) were lysed in a buffer containing Hepes 50 mM, DTT 1 mM, EDTA 0.1 mM, NP-40 0.1%, CHAPS 0.1% and protein quantitation determined. Protein aliquots (20 μg) were incubated with 20 μM Ac-DEVD-AMC (Pharmingen, San Diego, Calif.) in a buffer containing Hepes 50 mM, DTT 1 mM, EDTA 0.1 mM, NP-40 0.1%, CHAPS 0.1%, at 37° C. for 3 h. Caspase 3 activity was determined in the cytosolic extracts by analysing the release of 7-amino-4-methylcoumarin (AMC) from N-acetyl-DEVD-AMC (Thornberry N A, et al. Nature 1992; 356:768-74); the release of AMC was monitored in a spectrofluorometer with an excitation wavelength of 380 nm and emission wavelength of 440 nm.
# as §1, with “356: 768-74);” for “356:768-74);”
sequence,measurement,setting,value
KLTWQELYQLKYKGI [QK],formation of new connections,Human endothelial cells; peptide alone,induced the formation of new connections in a dose dependent manner
same,formation of new connections in presence of VEGF165,Human endothelial cells; with VEGF165 100 ng/ml,enhanced the response to VEGF165
same,rescue from apoptosis in presence of VEGF (caspase 3),HUVEC; QK 5 ng/ml with VEGF 20 ng/ml,enhanced the response of HUVEC to VEGF
same,rescue of HUVEC from apoptosis (caspase 3 activation),"HUVEC; VEGF 20 ng/ml, QK 5 ng/ml",showed a biological effect similar to VEGF
